Our source for the T/C values is PubChem BioAssay AID330 (DTP/NCI, 2004).

This assay has as its system P388 leukemia ip, CD2F1 mice, survival T/C. Nature of the assay: NCI In Vivo Anticancer Drug Screen. Data for tumor model P388 Leukemia (intraperitoneal) in CD2F1 (CDF1) mice. The following applies: endpoint: median survival time, higher = longer survival. An outline of the steps: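 Mice carrying the transplanted tumor received test compound or vehicle. Survival was recorded in each group, and the value is the treated-group measurement divided by that of the vehicle-treated control group.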

[1] abbreviates: dose: 50.0 mg/kg/injection, schedule: Q01DX005 (ip), vehicle: saline.
Where [2] appears, read: dose: 100.0 mg/kg/injection, schedule: Q01DX005 (ip), vehicle: saline.
Where [3] appears, read: dose: 60.0 mg/kg/injection, schedule: Q01DX005 (ip), vehicle: saline with Tween-80.
[4] abbreviates: dose: 120.0 mg/kg/injection, schedule: Q01DX005 (ip), vehicle: saline with Tween-80.
The mark [5] stands for this setting: dose: 50.0 mg/kg/injection, schedule: Q01DX009 (ip), vehicle: saline.
[6] abbreviates: dose: 100.0 mg/kg/injection, schedule: Q01DX009 (ip), vehicle: saline.
Where [7] appears, read: dose: 200.0 mg/kg/injection, schedule: Q01DX009 (ip), vehicle: saline.
[8] abbreviates: dose: 50.0 mg/kg/injection, schedule: Q01DX009 (ip), vehicle: saline with Tween-80.
[9] abbreviates: dose: 200.0 mg/kg/injection, schedule: Q01DX009 (ip), vehicle: saline with Tween-80.
The mark [10] stands for this setting: dose: 240.0 mg/kg/injection, schedule: Q01DX005 (ip), vehicle: saline with Tween-80.
The mark [11] stands for this setting: dose: 50.0 mg/kg/injection, schedule: Q01DX005 (ip), vehicle: saline with Tween-80.
[12] abbreviates: dose: 100.0 mg/kg/injection, schedule: Q01DX005 (ip), vehicle: saline with Tween-80.
The mark [13] stands for this setting: dose: 200.0 mg/kg/injection, schedule: Q01DX005 (ip), vehicle: saline with Tween-80.

Values joined by “and” are separate entries in the source; they are usually repeats but may differ in a detail not shown here. Equal values may be shown once. Toxic doses and inconclusive results are not listed.

As to `CC[C@@]1(O)CC(OC2CC(N3CCOCC3)C(O)C(C)O2)c2c(O)c3c(c(O)c2[C@H]1O)C(=O)c1cccc(O)c1C3=O` (some centres not stated), the T/C (dose: 0.89 mg/kg/injection, schedule: Q04DX003 (iv), vehicle: saline) is 163 % of control; the T/C (dose: 1.33 mg/kg/injection, schedule: Q04DX003 (iv), vehicle: saline) is 186 % of control; the T/C (dose: 2.0 mg/kg/injection, schedule: Q04DX003 (iv), vehicle: saline) was 209 % of control; the T/C (dose: 3.0 mg/kg/injection, schedule: Q04DX003 (iv), vehicle: saline) is 242 % of control; the T/C (dose: 4.5 mg/kg/injection, schedule: Q04DX003 (iv), vehicle: saline) is 113 % of control.

Turning to `OCC1(c2ccncc2)OCCO1`, the T/C by setting is: under setting [1], 101 % of control; under setting [2], 104 % of control; (dose: 200.0 mg/kg/injection, schedule: Q01DX005 (ip), vehicle: saline) 92 % of control.

On to `O=C(O)/C(Cl)=C(\Cl)C(=O)Nc1c(Cl)cccc1Cl`, for which the T/C is 101 % of control under setting [3] and 100 % of control under setting [4].

As for `CCOC(=O)CNC(=O)NNC(=O)OCC`, the T/C was 98 % of control (dose: 6.25 mg/kg/injection, schedule: Q01DX009 (ip), vehicle: saline); 91 % of control (dose: 12.5 mg/kg/injection, schedule: Q01DX009 (ip), vehicle: saline); 100 % of control under setting [5]; 100 % of control under setting [6]; 100 % of control under setting [7].

Consider `CCCOc1ccc2c(NCCCCNc3c4ccccc4nc4cc(OCCC)ccc34)c3ccccc3nc2c1`, for which the T/C is 98 % of control (dose: 0.62 mg/kg/injection, schedule: Q01DX009 (ip), vehicle: other); 109 % of control (dose: 1.25 mg/kg/injection, schedule: Q01DX009 (ip), vehicle: other); 98 % of control (dose: 2.5 mg/kg/injection, schedule: Q01DX009 (ip), vehicle: other); 107 % of control (dose: 5.0 mg/kg/injection, schedule: Q01DX009 (ip), vehicle: other); 107 % of control (dose: 10.0 mg/kg/injection, schedule: Q01DX009 (ip), vehicle: other).

For `CCCN1CCc2cccc3c2C1Cc1ccc(O)c(O)c1-3` (configuration not stated), the T/C is 121 % of control under setting [8], 113 % of control under setting [5] and 109 % of control under setting [9].

Turning to `Nc1[nH]c(=O)ncc1-c1ccccc1Cl`, the T/C under setting [3] was 98 % of control, the T/C under setting [4] was 104 % of control and the T/C under setting [10] was 112 % of control.

As to `CC1=NOCC(=O)N1`, the T/C by setting is: (dose: 50.0 mg/kg/injection, schedule: Q01DX005 (ip), vehicle: distilled water + alcohol) 106 % of control; (dose: 100.0 mg/kg/injection, schedule: Q01DX005 (ip), vehicle: distilled water + alcohol) 102 % of control; (dose: 200.0 mg/kg/injection, schedule: Q01DX005 (ip), vehicle: distilled water + alcohol) 105 % of control.

With `O=CNc1ccc(/C=C\c2ccnc3ccccc23)cc1`, the T/C reads like this: (dose: 3.13 mg/kg/injection, schedule: Q01DX009 (ip), vehicle: saline with Tween-80) 109 % of control; (dose: 6.25 mg/kg/injection, schedule: Q01DX009 (ip), vehicle: saline with Tween-80) 100 % of control; (dose: 12.5 mg/kg/injection, schedule: Q01DX009 (ip), vehicle: saline with Tween-80) 100 % of control; (dose: 25.0 mg/kg/injection, schedule: Q01DX009 (ip), vehicle: saline with Tween-80) 91 % of control.

Regarding `Cc1cc(F)nc(F)n1`, the T/C is 98 % of control under setting [1] and 98 % of control under setting [2].

Take `C1CNC(C2=NCCN2)=N1`: the T/C by setting is: under setting [11], 108 % of control; under setting [12], 101 % of control; under setting [13], 97 % of control.

In the case of `Cc1c2c(c(C)c3c1C(=O)c1cc4c(cc1C3=O)OCO4)OC(C)O2`, the T/C was 89 % of control under setting [3], 89 % of control under setting [4] and 91 % of control under setting [10].

Regarding `CC(CSc1ccccc1)C(Sc1ccccc1)Sc1ccccc1` (configuration not stated), the T/C by setting is: under setting [5], 102 % of control; under setting [6], 98 % of control; under setting [7], 106 % of control.

Regarding `Clc1cc2nc3[nH]c4ccccc4c3nc2cc1Cl`, the T/C was 93 % of control (dose: 15.0 mg/kg/injection, schedule: Q01DX005 (ip), vehicle: Klucel (hydroxypropylcellulose) (HPC)); 101 % of control (dose: 30.0 mg/kg/injection, schedule: Q01DX005 (ip), vehicle: Klucel (hydroxypropylcellulose) (HPC)); 93 % of control and 98 % of control (dose: 60.0 mg/kg/injection, schedule: Q01DX005 (ip), vehicle: Klucel (hydroxypropylcellulose) (HPC)); 97 % of control (dose: 120.0 mg/kg/injection, schedule: Q01DX005 (ip), vehicle: Klucel (hydroxypropylcellulose) (HPC)).

Consider `CNC1CCc2cc(OC)ccc21` (configuration not stated), for which the T/C runs as follows: (dose: 50.0 mg/kg/injection, schedule: Q01DX001 (ip), vehicle: Klucel (hydroxypropylcellulose) (HPC)) 107 % of control; (dose: 100.0 mg/kg/injection, schedule: Q01DX001 (ip), vehicle: Klucel (hydroxypropylcellulose) (HPC)) 102 % of control.

With `CC(=O)Sc1ccccc1C(=O)NCc1ccc(Cl)cc1`, the T/C under setting [8] was 117 % of control; the T/C (dose: 100.0 mg/kg/injection, schedule: Q01DX009 (ip), vehicle: saline with Tween-80) was 104 % of control; the T/C under setting [9] is 120 % of control.

Regarding `CC(C)OC1NC(=O)Oc2ccccc21` (configuration not stated), the T/C is, setting by setting: under setting [11], 104 % of control; under setting [12], 110 % of control; under setting [13], 113 % of control.

Take `Cc1cc(=O)n2c(nc3cc(Cl)ccc32)s1`: the T/C runs as follows: (dose: 50.0 mg/kg/injection, schedule: Q01DX009 (ip), vehicle: Klucel (hydroxypropylcellulose) (HPC)) 103 % of control; (dose: 100.0 mg/kg/injection, schedule: Q01DX009 (ip), vehicle: Klucel (hydroxypropylcellulose) (HPC)) 95 % of control; (dose: 200.0 mg/kg/injection, schedule: Q01DX009 (ip), vehicle: Klucel (hydroxypropylcellulose) (HPC)) 89 % of control.

For the molecule `CC1(C)CC(=O)C=C(OS(=O)(=O)C(F)(F)F)C1`, the T/C is, setting by setting: (dose: 12.5 mg/kg/injection, schedule: Q01DX009 (ip), vehicle: distilled water + Tween-80) 111 % of control; (dose: 25.0 mg/kg/injection, schedule: Q01DX009 (ip), vehicle: distilled water + Tween-80) 112 % of control; (dose: 50.0 mg/kg/injection, schedule: Q01DX009 (ip), vehicle: distilled water + Tween-80) 98 % of control.

For the molecule `C/C(N=NC(=S)N1CCCC(C)C1)=C1\C=CC=CN1O` (configuration not stated), the T/C reads like this: under setting [11], 101 % of control; under setting [12], 98 % of control; under setting [13], 112 % of control.

With `CCCCCC(=O)NCC(=O)NC1C(C)OC(Nc2ncnc3nc[nH]c23)C(O)C1O` (configuration not stated), the T/C (dose: 0.5 mg/kg/injection, schedule: Q01DX009 (ip), vehicle: other) was 99 % of control; the T/C (dose: 1.0 mg/kg/injection, schedule: Q01DX009 (ip), vehicle: other) is 102 % of control; the T/C (dose: 2.0 mg/kg/injection, schedule: Q01DX009 (ip), vehicle: other) is 106 % of control; the T/C (dose: 4.0 mg/kg/injection, schedule: Q01DX009 (ip), vehicle: other) was 106 % of control; the T/C (dose: 8.0 mg/kg/injection, schedule: Q01DX009 (ip), vehicle: other) is 99 % of control.

As for `CN(C)CCCNc1cccc2c1C(=O)c1c(NCCCN(C)C)cccc1C2=O`, the T/C (dose: 3.75 mg/kg/injection, schedule: Q01DX009 (ip), vehicle: saline) was 99 % of control; the T/C (dose: 7.5 mg/kg/injection, schedule: Q01DX009 (ip), vehicle: saline) was 105 % of control; the T/C (dose: 12.5 mg/kg/injection, schedule: Q01DX009 (ip), vehicle: water) was 98 % of control; the T/C (dose: 15.0 mg/kg/injection, schedule: Q01DX009 (ip), vehicle: saline) is 106 % of control; the T/C (dose: 25.0 mg/kg/injection, schedule: Q01DX009 (ip), vehicle: water) was 95 % of control; the T/C (dose: 30.0 mg/kg/injection, schedule: Q01DX009 (ip), vehicle: saline) was 96 % of control. The T/C (dose: 60.0 mg/kg/injection, schedule: Q01DX009 (ip), vehicle: saline) is 90 % of control.
